14 molecules from BindingDB's records for patent US10626112 (Ea Pharma, 2020) can be followed below.

The target of the experiment is Transient receptor potential cation channel subfamily A member 1 (Homo sapiens, UniProt O75762). The experiment is described as follows: Measurement of TRPA1 Antagonist Activity. As to the method: The test substance was dissolved in dimethyl sulfoxide and serially diluted with an assay buffer containing 0.1% bovine serum albumin (1×HBSS, 20 mM HEPES, pH 7.2) to a 4.8-fold concentration of the evaluation concentration. Allylisothiocyanate, which is a known TRPA1 activator, was dissolved in dimethyl sulfoxide to 100 mM, and further diluted 5-fold (100 μM) of the final concentration, like the test substance.
Sequence of Transient receptor potential cation channel subfamily A member 1 (O75762 whole entry): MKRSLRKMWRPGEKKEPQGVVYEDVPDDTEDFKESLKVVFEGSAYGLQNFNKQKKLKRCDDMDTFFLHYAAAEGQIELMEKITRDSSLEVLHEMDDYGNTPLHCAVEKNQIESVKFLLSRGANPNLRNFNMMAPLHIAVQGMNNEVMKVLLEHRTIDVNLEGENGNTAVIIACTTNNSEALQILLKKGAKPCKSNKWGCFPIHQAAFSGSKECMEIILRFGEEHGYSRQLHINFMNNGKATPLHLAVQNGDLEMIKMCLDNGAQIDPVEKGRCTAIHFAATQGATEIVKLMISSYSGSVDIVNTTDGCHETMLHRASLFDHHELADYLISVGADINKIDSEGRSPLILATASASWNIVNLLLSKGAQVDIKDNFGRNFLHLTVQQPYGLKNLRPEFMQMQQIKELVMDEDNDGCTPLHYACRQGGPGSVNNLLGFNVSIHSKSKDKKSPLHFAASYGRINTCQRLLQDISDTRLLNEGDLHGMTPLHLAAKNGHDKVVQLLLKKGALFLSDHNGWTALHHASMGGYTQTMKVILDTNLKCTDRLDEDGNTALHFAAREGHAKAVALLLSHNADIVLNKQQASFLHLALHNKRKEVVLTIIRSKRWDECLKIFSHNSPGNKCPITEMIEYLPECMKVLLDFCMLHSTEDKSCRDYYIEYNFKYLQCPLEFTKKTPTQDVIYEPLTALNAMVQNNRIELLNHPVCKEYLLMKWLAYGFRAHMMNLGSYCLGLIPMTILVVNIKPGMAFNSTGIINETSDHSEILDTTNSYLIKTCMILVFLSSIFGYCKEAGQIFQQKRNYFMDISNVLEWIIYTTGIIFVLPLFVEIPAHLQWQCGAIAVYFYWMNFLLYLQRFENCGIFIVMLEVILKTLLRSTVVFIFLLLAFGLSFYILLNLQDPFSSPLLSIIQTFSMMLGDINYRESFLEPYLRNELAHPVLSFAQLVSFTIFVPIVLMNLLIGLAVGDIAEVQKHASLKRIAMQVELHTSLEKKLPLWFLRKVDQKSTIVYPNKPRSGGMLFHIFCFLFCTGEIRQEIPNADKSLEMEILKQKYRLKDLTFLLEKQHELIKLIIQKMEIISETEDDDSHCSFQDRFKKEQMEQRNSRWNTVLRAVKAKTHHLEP

One may read the IC50 as the midpoint of a concentration-inhibition curve. Low values mean greater potency in that assay, high ones weaker potency in that assay. `O=C(CN(Cc1ncco1)S(=O)(=O)c1cc2cc(F)ccc2o1)NCc1cc(-c2ccc(C(F)(F)F)cc2)ncn1` [US10626112, Example 354] registered an IC50 of 380 nM.

As to `CC(C)(C)OC[C@H](NS(=O)(=O)c1cc2cc(F)ccc2o1)C(=O)NCc1cc(-c2ccc(C(F)(F)F)cc2)ncn1` [US10626112, Example 415], the IC50 was 410 nM.

Regarding `O=C(CN(Cc1ccccc1)S(=O)(=O)c1cc2cc(F)ccc2o1)NCc1cc(-c2ccc(C(F)(F)F)cn2)ccn1` [US10626112, Example 350], the IC50 is 630 nM.

For `O=C(CN(Cc1ncco1)S(=O)(=O)c1cc2cc(F)ccc2o1)NCc1cc(-c2ccc(C(F)(F)F)cn2)ccn1` [US10626112, Example 351], it took 990 nM to reach half-maximal inhibition (IC50).

As for `CC(C)OCCN(CC(=O)NCc1cc(-c2ccc(C(F)(F)F)cc2)ncn1)S(=O)(=O)c1cc2cc(F)ccc2o1` [US10626112, Example 358], the IC50 came out at 110 nM.

With `O=C(CN(Cc1cnccn1)S(=O)(=O)c1cc2cc(F)ccc2o1)NCc1cc(-c2ccc(C(F)(F)F)cc2)ncn1` [US10626112, Example 361], it took 470 nM to reach half-maximal inhibition (IC50).

`O=C(NCc1cccc(CSc2ccc(C(F)(F)F)cc2)c1)[C@@H]1CCCN1S(=O)(=O)c1cc2ccccc2o1` [US10626112, Example 299] showed an IC50 of 24 nM.

Turning to `O=C(NCc1ccnc(-c2ccc(COCC(F)(F)F)nc2)c1)[C@@H]1CCCN1S(=O)(=O)c1cc2ccccc2o1` [US10626112, Example 331], the IC50 was 170 nM.

For the molecule `O=C(CN(Cc1ccccc1)S(=O)(=O)c1cc2cc(F)ccc2o1)NCc1cc(-c2ccc(C(F)(F)F)cc2)ncn1` [US10626112, Example 352], 410 nM corresponded to half-maximal inhibition (IC50).

As for `O=C(NCc1cccc(OCc2ccc(N3CCOCC3)nc2)c1)[C@@H]1CCCN1S(=O)(=O)c1cc2cc(F)ccc2o1` [US10626112, Example 22], the IC50 turned out to be 110 nM.

Molecule `COCCN(CC(=O)NCc1cc(-c2ccc(C(F)(F)F)cn2)ccn1)S(=O)(=O)c1cc2cc(F)ccc2o1` [US10626112, Example 355] came in with an IC50 of 100 nM.

The molecule `O=C(CN(CC1CCNC1)S(=O)(=O)c1cc2cc(F)ccc2o1)NCc1cc(-c2ccc(C(F)(F)F)cc2)ncn1` (centres undefined) [US10626112, Example 425] came in with an IC50 of 190 nM.

The molecule `CC(C)OCCN(CC(=O)NCc1cc(-c2ccc(C(F)(F)F)cn2)ccn1)S(=O)(=O)c1cc2cc(F)ccc2o1` [US10626112, Example 356] yielded an IC50 of 190 nM.

`O=C(NCc1cc(-c2ccc(C(F)(F)F)cc2)ncn1)[C@@H]1CCCN1S(=O)(=O)c1cc2ccncc2o1` [US10626112, Example 347] showed an IC50 of 74 nM.
